Reference: paper PMC9599461, “Stereoselectivity in the Membrane Transport of Phenylethylamine Derivatives by Human Monoamine Transporters and Organic Cation Transporters 1, 2, and 3” (Biomolecules, 2022)

How the values were obtained:
SERT [1] = target: T1, SERT (Homo sapiens, UniProt P31645); assay: in vitro;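 note: uptake into HEK293 cells stably expressing human SERT over 2 min, enantiomers measured in cell lysate by chiral HPLC-MS/MS, normalized to total protein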
Procedure: (§1) All transport experiments were carried out in HEK293 cells stably overexpressing human MATs or OCTs. […] All cells were regularly cultivated in DMEM supplemented with 10% (v/v) FCS, penicillin (100 U/mL) and streptomycin (100 μg/mL)and kept in culture for no longer than 30 passages.
(§2) For the uptake experiments, 300,000 cells were plated in poly-D-lysine precoated 24-well plates 48 h ahead of the transport experiment. On the day of experiment, cells were initially washed once with 37 °C pre-warmed HBSS+ (Hanks buffered salt solution supplemented with 10 mM HEPES) and subsequently incubated with the substrates dissolved in pre-warmed HBSS+ for exactly two minutes. Incubation was stopped by adding ice-cold HBSS+ followed by two washing steps. After this, cells were lysed with 80% acetonitrile containing 10 ng/mL milnacipran as internal standard for high-performance liquid chromatography coupled to tandem mass spectrometry (HPLC-MS/MS) analysis. For every experiment, two additional wells per cell line were lysed using RIPA buffer for protein quantification. Total protein was quantified using the bicinchoninic acid assay [42]. This was later used for normalization of the uptake data.
(§3) Intracellularly accumulated test substances were quantified by HPLC-MS/MS analysis using a Shimadzu Nexera HPLC system with a SIL-30AC autosampler, a CTO-20AC column oven, a LC-30AD pump, and a CBM-20A controller (Shimadzu, Kyoto, Japan). […] CBH HPLC column (100 × 3 mm inner dimension with 5 μM particle size; Sigma-Aldrich, Darmstadt, Germany) with a corresponding 10 × 3 mm guard column. Reversed phased chromatography was carried out using an ammonium acetate (NH4Ac) buffered aqueous mobile phase with isopropyl alcohol (IPA) as organic solvent. […] The order of elution of the enantiomers was obtained from available reference literature [43] or by applying enantiopure reference compounds to the chiral HPLC.
(§4) Detection was performed with an API 4000 tandem mass spectrometer (AB SCIEX, Darmstadt, Germany) operating in multiple-reaction-monitoring mode. Quantification was performed using the Analyst 1.6.2 software (AB SCIEX, Darmstadt, Germany) and quantified by comparison to standard curves with known concentrations.
(§5) All uptake data were normalized to protein content to account for variation in the number of seeded sells. Transporter-mediated net uptake was calculated by subtracting uptake into empty vector-transfected control cells from uptake into transporter-transfected cells. […] Vmax refers to the maximum transport velocity and Km is defined as the substance concentration required to reach half of vmax. The intrinsic clearance Clint was calculated as the quotient of vmax over Km.

[2] = test system: OCT2 wild-type versus A270S variant; assay: in vitro; details: human, Transporter selectivity, OCT2 wild-type versus A270S, 100 μM racemic substance, two minutes
Procedure: as §1, §2
(§6) Intracellularly accumulated test substances were quantified by HPLC-MS/MS analysis using a Shimadzu Nexera HPLC system with a SIL-30AC autosampler, a CTO-20AC column oven, a LC-30AD pump, and a CBM-20A controller (Shimadzu, Kyoto, Japan). Stereoselective chromatography was carried out on a [sequence] CBH HPLC column (100 × 3 mm inner dimension with 5 μM particle size; Sigma-Aldrich, Darmstadt, Germany) with a corresponding 10 × 3 mm guard column. Reversed phased chromatography was carried out using an ammonium acetate (NH4Ac) buffered aqueous mobile phase with isopropyl alcohol (IPA) as organic solvent. […] The order of elution of the enantiomers was obtained from available reference literature [43] or by applying enantiopure reference compounds to the chiral HPLC. […] However, in every other case where the order of elution was available, the (R)-enantiomer eluted first. Given the structural similarity of the investigated substances and the fact that separation was performed on the same column with almost identical mobile phases, we assume that this order of elution for our compound set is always the (R)- before the (S)-enantiomer.
as §4
(§7) All uptake data were normalized to protein content to account for variation in the number of seeded sells. Transporter-mediated net uptake was calculated by subtracting uptake into empty vector-transfected control cells from uptake into transporter-transfected cells. Kinetic parameters were then determined after non-linear regression following the Michaelis–Menten equation (v = vmax × [S]/(Km + [S])) using GraphPad Prism (Version 5.01 for Windows, GraphPad Software, La Jolla, CA, USA). Vmax refers to the maximum transport velocity and Km is defined as the substance concentration required to reach half of vmax. The intrinsic clearance Clint was calculated as the quotient of vmax over Km.
(§8) HEK293 cells stably overexpressing wild-type or mutant OCT2 were incubated with 100 μM racemic substance for two minutes.

NET = NET (Homo sapiens, UniProt P23975); assay: Stereoselective uptake into NET-overexpressing HEK293 cells; details: for Clint ± SEM / Stereoselectivity Vmax / Saturable net uptake: NET; for Clint ± SEM: quotient of vmax over Km; for Stereoselectivity Vmax: ratio between enantiomers; for selectivity ratio at 2 min: human; for Saturable net uptake: result in words;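 for all read-outs here: intracellular enantiomers quantified in cell lysates by chiral HPLC-MS/MS after a 2 min substrate incubation, with uptake normalized to total cellular protein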
Chain of NET (P23975 whole entry): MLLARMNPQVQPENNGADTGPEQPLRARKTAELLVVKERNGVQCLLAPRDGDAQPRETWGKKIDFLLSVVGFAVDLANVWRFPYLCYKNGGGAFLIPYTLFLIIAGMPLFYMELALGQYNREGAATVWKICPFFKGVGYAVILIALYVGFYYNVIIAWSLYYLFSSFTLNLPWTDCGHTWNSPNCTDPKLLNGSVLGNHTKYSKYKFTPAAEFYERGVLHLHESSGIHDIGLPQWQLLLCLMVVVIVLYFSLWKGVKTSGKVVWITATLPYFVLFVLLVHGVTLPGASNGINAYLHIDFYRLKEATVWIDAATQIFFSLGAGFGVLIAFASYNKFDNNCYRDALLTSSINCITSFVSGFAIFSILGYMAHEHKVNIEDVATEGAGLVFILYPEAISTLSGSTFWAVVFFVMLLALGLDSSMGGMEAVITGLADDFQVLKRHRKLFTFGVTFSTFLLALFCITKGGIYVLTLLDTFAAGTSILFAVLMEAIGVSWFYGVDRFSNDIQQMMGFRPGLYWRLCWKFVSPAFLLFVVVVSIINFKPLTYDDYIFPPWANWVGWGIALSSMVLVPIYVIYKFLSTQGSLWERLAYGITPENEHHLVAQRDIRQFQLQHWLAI

DAT = DAT (Homo sapiens, UniProt Q01959); assay: Stereoselective uptake into DAT-overexpressing HEK293 cells; details: for Clint ± SEM / Stereoselectivity Vmax / Stereoselectivity Km / Saturable net uptake: DAT; for Clint ± SEM: quotient of vmax over Km; for Stereoselectivity Vmax / Stereoselectivity Km: ratio between enantiomers; for selectivity ratio at 2 min: human; for Saturable net uptake: result in words;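 for all read-outs here: intracellular accumulation measured by chiral HPLC-MS/MS in stably transfected HEK293 cells, normalized to total protein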
Chain of DAT (Q01959 whole entry): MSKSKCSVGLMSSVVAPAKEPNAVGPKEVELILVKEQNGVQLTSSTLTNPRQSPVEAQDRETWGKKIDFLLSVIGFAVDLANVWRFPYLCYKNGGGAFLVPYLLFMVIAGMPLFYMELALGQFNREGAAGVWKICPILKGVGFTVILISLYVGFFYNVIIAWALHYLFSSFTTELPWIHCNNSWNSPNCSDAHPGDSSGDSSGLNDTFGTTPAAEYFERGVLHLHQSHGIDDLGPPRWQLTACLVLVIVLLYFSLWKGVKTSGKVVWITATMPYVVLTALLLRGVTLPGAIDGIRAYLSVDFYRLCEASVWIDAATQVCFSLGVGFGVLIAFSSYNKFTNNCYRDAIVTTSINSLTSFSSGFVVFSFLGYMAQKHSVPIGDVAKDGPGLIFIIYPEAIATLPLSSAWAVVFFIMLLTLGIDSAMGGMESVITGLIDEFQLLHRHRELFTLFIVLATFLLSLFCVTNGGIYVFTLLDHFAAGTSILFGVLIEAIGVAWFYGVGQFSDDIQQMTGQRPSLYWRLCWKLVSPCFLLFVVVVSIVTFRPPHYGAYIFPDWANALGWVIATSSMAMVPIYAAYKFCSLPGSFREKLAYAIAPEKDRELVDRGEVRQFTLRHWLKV
Procedure: as §1, §2
(§9) Intracellularly accumulated test substances were quantified by HPLC-MS/MS analysis using a Shimadzu Nexera HPLC system with a SIL-30AC autosampler, a CTO-20AC column oven, a LC-30AD pump, and a CBM-20A controller (Shimadzu, Kyoto, Japan). Stereoselective chromatography was carried out on a [sequence] CBH HPLC column (100 × 3 mm inner dimension with 5 μM particle size; Sigma-Aldrich, Darmstadt, Germany) with a corresponding 10 × 3 mm guard column. Reversed phased chromatography was carried out using an ammonium acetate (NH4Ac) buffered aqueous mobile phase with isopropyl alcohol (IPA) as organic solvent. […] The order of elution of the enantiomers was obtained from available reference literature [43] or by applying enantiopure reference compounds to the chiral HPLC. […] Given the structural similarity of the investigated substances and the fact that separation was performed on the same column with almost identical mobile phases, we assume that this order of elution for our compound set is always the (R)- before the (S)-enantiomer.
as §4, §7

SERT [3] = target: T1, SERT; assay: Stereoselective uptake into SERT-overexpressing HEK293 cells; details: for Clint ± SEM / Saturable net uptake: SERT; for Clint ± SEM: quotient of vmax over Km; for Saturable net uptake: result in words;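 for all read-outs here: uptake into HEK293 cells stably expressing human SERT over 2 min, enantiomers measured in cell lysate by chiral HPLC-MS/MS, normalized to total protein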
Procedure: as §1, §2, §3, §4, §5

OCT1 = target: T2, OCT1 (Homo sapiens, UniProt O15245); assay: Stereoselective uptake into OCT1-overexpressing HEK293 cells; details: for Clint ± SEM: quotient of vmax over Km; for selectivity ratio at 2 min: human; for Saturable net uptake: result in words;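 for all read-outs here: enantiomers quantified inside cells by chiral HPLC-MS/MS, uptake normalized to total protein from bicinchoninic acid assay, substrates applied in HBSS+ buffer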
T2 sequence (O15245 1-554): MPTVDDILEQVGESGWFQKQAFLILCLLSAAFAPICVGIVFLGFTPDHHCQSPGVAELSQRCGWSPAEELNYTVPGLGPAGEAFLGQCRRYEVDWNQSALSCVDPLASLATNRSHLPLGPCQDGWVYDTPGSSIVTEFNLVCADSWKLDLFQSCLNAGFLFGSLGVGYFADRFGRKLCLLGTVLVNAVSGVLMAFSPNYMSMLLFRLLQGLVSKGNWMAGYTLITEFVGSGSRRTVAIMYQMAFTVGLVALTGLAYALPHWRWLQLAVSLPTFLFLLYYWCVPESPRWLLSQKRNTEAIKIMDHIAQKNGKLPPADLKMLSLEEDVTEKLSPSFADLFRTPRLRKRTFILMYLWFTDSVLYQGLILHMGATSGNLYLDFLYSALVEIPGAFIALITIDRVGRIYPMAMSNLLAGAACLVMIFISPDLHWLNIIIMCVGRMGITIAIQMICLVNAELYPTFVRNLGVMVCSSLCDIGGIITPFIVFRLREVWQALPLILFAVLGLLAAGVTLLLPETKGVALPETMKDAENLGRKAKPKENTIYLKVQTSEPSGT
Procedure: as §1, §2, §9, §4, §7

OCT3 = target: T3, OCT3 (Homo sapiens, UniProt O75751); assay: Stereoselective uptake into OCT3-overexpressing HEK293 cells; details: for Clint ± SEM / Stereoselectivity Vmax / Stereoselectivity Km / Saturable net uptake: OCT3; for Clint ± SEM: quotient of vmax over Km; for Stereoselectivity Vmax / Stereoselectivity Km: ratio between enantiomers; for Stereoselectivity Vmax: given as for (R) or for 1; for Stereoselectivity Km: given as for (R) or for 1 (first-eluting); for selectivity ratio at 2 min: human; for Saturable net uptake: result in words;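 for all read-outs here: intracellular accumulation in HEK293 cells measured by chiral HPLC-MS/MS after a 2 min substrate exposure at 37 °C, uptake normalized to total protein (bicinchoninic acid assay)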
T3 sequence (O75751 1-556): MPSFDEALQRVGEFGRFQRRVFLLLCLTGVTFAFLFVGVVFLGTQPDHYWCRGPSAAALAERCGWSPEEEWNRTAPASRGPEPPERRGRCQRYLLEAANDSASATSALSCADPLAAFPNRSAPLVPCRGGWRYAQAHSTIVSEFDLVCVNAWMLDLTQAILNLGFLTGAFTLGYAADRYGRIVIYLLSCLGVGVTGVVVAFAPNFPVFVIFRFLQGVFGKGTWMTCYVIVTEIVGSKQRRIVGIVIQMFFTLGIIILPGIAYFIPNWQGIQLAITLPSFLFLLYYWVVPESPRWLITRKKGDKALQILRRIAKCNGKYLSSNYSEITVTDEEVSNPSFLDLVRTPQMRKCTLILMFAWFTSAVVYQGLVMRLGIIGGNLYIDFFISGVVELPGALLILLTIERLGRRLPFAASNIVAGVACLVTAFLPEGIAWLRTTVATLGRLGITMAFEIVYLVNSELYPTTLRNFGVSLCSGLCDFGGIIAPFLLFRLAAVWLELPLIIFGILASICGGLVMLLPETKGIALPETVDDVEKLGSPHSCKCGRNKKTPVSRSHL

OCT2 = target: T4, OCT2 (Homo sapiens, UniProt O15244); assay: Stereoselective uptake into OCT2 (wild-type)-overexpressing HEK293 cells; details: OCT2; for Clint ± SEM: quotient of vmax over Km; for selectivity ratio at 2 min: human, ratio between enantiomers
T4 sequence (O15244 1-555 S270A): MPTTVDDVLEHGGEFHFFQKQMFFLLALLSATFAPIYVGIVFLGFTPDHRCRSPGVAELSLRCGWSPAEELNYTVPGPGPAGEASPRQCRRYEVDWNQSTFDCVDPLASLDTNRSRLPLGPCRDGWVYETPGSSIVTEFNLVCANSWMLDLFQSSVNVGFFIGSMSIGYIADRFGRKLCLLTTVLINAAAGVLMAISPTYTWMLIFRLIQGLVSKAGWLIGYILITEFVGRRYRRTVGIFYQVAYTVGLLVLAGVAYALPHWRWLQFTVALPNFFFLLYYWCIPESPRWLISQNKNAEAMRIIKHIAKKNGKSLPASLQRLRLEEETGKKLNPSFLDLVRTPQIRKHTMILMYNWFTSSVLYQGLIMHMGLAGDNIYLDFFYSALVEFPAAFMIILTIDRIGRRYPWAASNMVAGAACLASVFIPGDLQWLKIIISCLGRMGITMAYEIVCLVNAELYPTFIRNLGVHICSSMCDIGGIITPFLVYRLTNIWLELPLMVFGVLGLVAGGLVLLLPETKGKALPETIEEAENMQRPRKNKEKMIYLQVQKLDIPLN

OCT2 A270S variant = assay: in vitro; details: human, Stereoselectivity OCT2_A270S, 100 μM racemic substance, two minutes, uptake ratio of enantiomers
Procedure: as §1, §2, §6, §4, §7, §8

OCT2 (wild-type) = target: T5, OCT2 (wild-type) (Homo sapiens, UniProt O15244); assay: Stereoselective uptake into OCT2 (wild-type)-overexpressing HEK293 cells; details: human, Stereoselectivity OCT2_WT, 100 μM racemic substance, two minutes; uptake ratio of enantiomers, given as for (R)
T5 sequence (O15244 1-555 S270A): T4 sequence (O15244 1-555 S270A)

[4] = Stereoselectivity Vmax, OCT1, ratio between enantiomers, given as for (R) or for 1
[5] = Stereoselectivity ClInt, given as for (R) or for 1
[6] = Stereoselectivity Km, given as for (R) or for 1 (first-eluting)
[7] = Stereoselectivity Vmax, given as for (R) or for 1

T1 sequence (P31645 whole entry): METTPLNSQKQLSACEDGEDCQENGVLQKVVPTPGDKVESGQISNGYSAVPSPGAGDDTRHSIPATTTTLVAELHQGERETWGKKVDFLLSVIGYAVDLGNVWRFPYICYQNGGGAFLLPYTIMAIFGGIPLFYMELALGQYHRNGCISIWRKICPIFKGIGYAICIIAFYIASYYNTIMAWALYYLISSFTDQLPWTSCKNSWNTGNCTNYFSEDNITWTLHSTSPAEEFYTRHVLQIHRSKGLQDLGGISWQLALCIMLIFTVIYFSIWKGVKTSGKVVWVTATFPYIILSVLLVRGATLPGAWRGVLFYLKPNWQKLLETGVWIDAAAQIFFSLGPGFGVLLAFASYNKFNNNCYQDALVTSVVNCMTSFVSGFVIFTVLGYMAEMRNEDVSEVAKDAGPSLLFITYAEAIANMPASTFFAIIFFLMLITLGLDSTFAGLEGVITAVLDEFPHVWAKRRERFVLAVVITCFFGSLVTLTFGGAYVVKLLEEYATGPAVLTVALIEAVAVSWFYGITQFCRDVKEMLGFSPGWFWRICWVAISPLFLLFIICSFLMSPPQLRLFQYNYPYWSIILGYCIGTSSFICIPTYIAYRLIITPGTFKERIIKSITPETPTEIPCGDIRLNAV

For `NCC(O)c1cccc(O)c1` (single isomer, unassigned) [Norphenylephrine-1, Norphenylephrine], the selectivity ratio (SERT [1]) was 1.53, the selectivity ratio at 2 min, 100 μM ([2]; given as for WT) was 1.18 and the “Clint ± SEM” value (NET) was 189 mL × g Protein^−1 × min^−1. For the same compound, the “Stereoselectivity Vmax” value (NET; given as for (S) or for 2) was 1.25 fold, the selectivity ratio at 2 min (NET) was 1.21 and the “Clint ± SEM” value (DAT) was 128 mL × g Protein^−1 × min^−1. The “Stereoselectivity Vmax” value (DAT; given as for (S) or for 2) was 1.55 fold, the “Stereoselectivity Km” value (DAT; given as for (S) or for 2 (second-eluting)) was 1.20 fold and the selectivity ratio at 2 min (DAT) was 1.29. The “Stereoselectivity Km” value (SERT [3]) was 1.20 fold, the “Stereoselectivity Vmax” value (SERT [3]) was 1.27 fold and the “Clint ± SEM” value (SERT [3]) was 1.20 mL × g Protein^−1 × min^−1. For the same compound, the “Clint ± SEM” value (OCT1; OCT1) was 4.02 mL × g Protein^−1 × min^−1, the selectivity ratio at 2 min (OCT1; Stereoselectivity ClInt) was 1.05 and the selectivity ratio at 2 min (OCT1; Stereoselectivity Km, OCT1, ratio between enantiomers, given as for (R) or for 1 (first-eluting)) was 1.03. The selectivity ratio at 2 min (OCT1; [4]) was 1.08, the “Clint ± SEM” value (OCT3) was 11.0 mL × g Protein^−1 × min^−1 and the “Stereoselectivity Vmax” value (OCT3) was 3.88 fold. For the same compound, the “Stereoselectivity Km” value (OCT3) was 1.17 fold, the selectivity ratio at 2 min (OCT3) was 3.32 and the “Clint ± SEM” value (OCT2) was 36.4 mL × g Protein^−1 × min^−1. It also gave a selectivity ratio at 2 min (OCT2; [5]) of 1.4, a selectivity ratio at 2 min (OCT2; [6]) of 1.57 and a selectivity ratio at 2 min (OCT2; [7]) of 2.19.
In the case of `CNC[C@H](O)c1cccc(O)c1` [(R)-Phenylephrine], the selectivity ratio (SERT [1]) is reported as 2.82, the selectivity ratio at 2 min, 100 μM ([2]; given as for WT) is reported as 1.27 and the “Vmax ± SEM” value (NET; HEK293 cells overexpressing human NET, racemic substrate, two minutes, net uptake) is reported as 392 pmol × mg Protein^−1 × min^−1. The “Clint ± SEM” value (NET) was 75.5 mL × g Protein^−1 × min^−1, the “Stereoselectivity Vmax” value (NET; given as for (R) or for 1) was 1.79 fold and the selectivity ratio at 2 min (NET) was 1.43. For the same compound, the Km (NET; read-out: Km ± SEM, HEK293 cells overexpressing human NET, racemic substrate, two minutes, net uptake minus empty vector control) was 5.12 µM, the “Clint ± SEM” value (DAT) was 17.2 mL × g Protein^−1 × min^−1 and the “Stereoselectivity Vmax” value (DAT; given as for (R) or for 1) was 1.56 fold. For the same compound, the “Stereoselectivity Km” value (DAT; given as for (R) or for 1 (first-eluting)) was 1.06 fold, the “Vmax ± SEM” value (DAT; HEK293 cells overexpressing human DAT, racemic substrate, two minutes, net uptake) was 613 pmol × mg Protein^−1 × min^−1 and the selectivity ratio at 2 min (DAT) was 1.48. The Km (DAT; read-out: Km ± SEM, HEK293 cells overexpressing human DAT, racemic substrate, two minutes, net uptake minus empty vector control) was 35.6 µM, the “Stereoselectivity Km” value (SERT [3]) was 1.89 fold and the “Stereoselectivity Vmax” value (SERT [3]) was 1.49 fold. For the same compound, the “Vmax ± SEM” value (SERT [3]) was 356, the “Clint ± SEM” value (SERT [3]) was 17.2 mL × g Protein^−1 × min^−1 and the Km (SERT [3]; read-out: Km ± SEM, HEK293 cells overexpressing human SERT, racemic substrate, two minutes, net uptake minus empty vector control) was 328 µM. For the same compound, the “Clint ± SEM” value (OCT1; OCT1) was 9.79 mL × g Protein^−1 × min^−1, the selectivity ratio at 2 min (OCT1; Stereoselectivity ClInt) was 1.11 and the selectivity ratio at 2 min (OCT1; Stereoselectivity Km, OCT1, ratio between enantiomers, given as for (S) or for 2 (second-eluting)) was 1.02. For the same compound, the selectivity ratio at 2 min (OCT1; [4]) was 1.08, the “Clint ± SEM” value (OCT3) was 11.8 mL × g Protein^−1 × min^−1 and the “Stereoselectivity Vmax” value (OCT3) was 3.33 fold. For the same compound, the “Stereoselectivity Km” value (OCT3) was 1.19 fold, the selectivity ratio at 2 min (OCT3) was 2.79 and the “Clint ± SEM” value (OCT2) was 29.5 mL × g Protein^−1 × min^−1. It also gave a selectivity ratio at 2 min (OCT2; Stereoselectivity ClInt, given as for (S) or for 2) of 1.02, a selectivity ratio at 2 min (OCT2; [6]) of 1.89 and a selectivity ratio at 2 min (OCT2; [7]) of 2.04.
For `NCC(O)c1ccccc1` (stereo not shown) [Bisnorephedrine], the selectivity ratio at 2 min, 100 μM (OCT2 A270S variant; given as for (S)) was 1.09 and the selectivity ratio at 2 min, 100 μM (OCT2 (wild-type)) was 1.1.
For `CNCC(O)c1ccccc1` (stereo not shown) [Halostachine-1, Halostachine], the selectivity ratio at 2 min, 100 μM ([2]; given as for WT) was 1.02, the Saturable net uptake (NET) was “No saturable net uptake” and the Saturable net uptake (DAT) was “No saturable net uptake”. For the same compound, the Saturable net uptake (SERT [3]) was “No saturable net uptake”, the Saturable net uptake (OCT1; OCT1) was “No saturable net uptake” and the Saturable net uptake (OCT3) was “No saturable net uptake”. The “Clint ± SEM” value (OCT2) was 25.7 mL × g Protein^−1 × min^−1, the selectivity ratio at 2 min (OCT2; [5]) was 1.89 and the selectivity ratio at 2 min (OCT2; Stereoselectivity Km, given as for (S) or for 2 (second-eluting)) was 1.5. It also gave a selectivity ratio at 2 min (OCT2; [7]) of 1.26.
With `CNCC(O)c1ccccc1` (stereo not shown) [Halostachine-2, Halostachine] the selectivity ratio at 2 min, 100 μM ([2]; given as for A270S) was 1.05, the Saturable net uptake (NET) was “No saturable net uptake” and the Saturable net uptake (DAT) was “No saturable net uptake”. For the same compound, the Saturable net uptake (SERT [3]) was “No saturable net uptake”, the Saturable net uptake (OCT1; OCT1) was “No saturable net uptake” and the Saturable net uptake (OCT3) was “No saturable net uptake”. For the same compound, the “Clint ± SEM” value (OCT2) was 13.6 mL × g Protein^−1 × min^−1.
For `CNCC(O)c1ccccc1` (stereo not shown) [Halostachine], the selectivity ratio at 2 min, 100 μM (OCT2 A270S variant; given as for (R)) was 1.32 and the selectivity ratio at 2 min, 100 μM (OCT2 (wild-type)) was 1.42.
`CNCC(O)c1ccc(O)c(OC)c1` (stereo not shown) [Metanephrine] showed a selectivity ratio at 2 min, 100 μM (OCT2 A270S variant; given as for (R)) of 2.26 and a selectivity ratio at 2 min, 100 μM (OCT2 (wild-type)) of 2.78.
In the case of `COc1cc(C(O)CN)ccc1O` (stereo not shown) [Normetanephrine], the selectivity ratio at 2 min, 100 μM (OCT2 A270S variant; given as for (R)) is reported as 1.7 and the selectivity ratio at 2 min, 100 μM (OCT2 (wild-type)) is reported as 1.91.
